First: CC(=NC(C#N)=C(N)C#N)c1ccco1
Second: CCC(C#N)(C(N)=O)c1ccccc1 (centres undefined)
The melting point of the first is higher: 175 to 176 °C for the first, 116 to 117 °C for the second.

First: CCN1C(=O)CSC1=NOC(=O)N(C)SC(Cl)(Cl)Cl
Second: CCN1CC(=O)N(c2ccccc2C)C1=S
The melting point of the first is higher: 126 to 128 °C for the first, 82 to 84 °C for the second.

Compared with O=C/C=C/c1ccc(Cl)c(Cl)c1, Cc1nc(-c2c(Cl)cccc2Cl)n[nH]1 is higher in melting point: 92 to 94 °C for the first, 221 to 226 °C for the second.

First: CCOC(=O)c1cn(-c2cnccn2)cn1
Second: Cc1c(-c2cnccn2)sc2nc(N)[nH]c(=O)c12
The melting point of the first is lower: 128 to 129 °C for the first, 280 to 300 °C for the second.

Compared with CC1(C)C(=O)N(c2ccc(C#N)c(C(F)(F)F)c2)C(=O)N1CCCCCl, CCc1cc2c(Cl)cc(F)c(-n3c(=O)cc(C(F)(F)F)[nH]c3=O)c2o1 is higher in melting point: 80 to 81 °C for the first, 154 to 155 °C for the second.

First: CC1=C(C(=O)OC(C)C)C(c2cccc([N+](=O)[O-])c2)N(C(=O)N(C)C)C(N)=N1 (centres undefined)
Second: COC(=O)c1ccc2nc(CC(C)C)c(CNC(=O)OC(C)(C)C)c(-c3ccc(C)cc3)c2c1
The melting point of the first is higher: 202 to 203 °C for the first, 192 to 194 °C for the second.

First: Brc1ccc(CSc2nc(-c3ccncc3)ns2)cc1
Second: N#Cc1ccc(-c2cn(-c3ccc(I)cc3)c(SCc3ccncc3)n2)cc1
The melting point of the first is lower: 132 °C for the first, 155 to 162 °C for the second.

First: Cc1ccc(O[C@@H](Cc2ccc(O)cc2)C(=O)OCC[Si](C)(C)C)cc1
Second: CCOc1ccc(OCc2ccc(OCc3nc(-c4ccccc4)oc3C)cc2)cc1CC(=O)O
The melting point of the first is lower: 94 to 95 °C for the first, 122 to 123 °C for the second.

First: C[C@@H]1CN(c2ncc3ncnc(Nc4ccc(F)c(Cl)c4)c3n2)CC[C@@H]1N (relative stereo)
Second: OCc1cn2c(n1)CN=C(c1ccccc1F)c1cc(Cl)ccc1-2
The melting point of the first is lower: 161 to 164 °C for the first, 196 to 200 °C for the second.

First: Cc1ccc(Oc2ccccc2C(=N)NN)c(O)c1
Second: CC(C)(C)OC(=O)n1ncc2ccc(NC(=O)c3ccccc3O)cc21
The melting point of the first is higher: over 260 °C for the first, 155 to 156 °C for the second.

Compared with CC(=O)N1CCC(NC(=O)N(CCCN2CCC(Cc3ccccc3)CC2)c2ccccc2)CC1, N#Cn1c(=O)c2ccccc2n(CCCCN2CCC(OC(c3ccccc3)c3ccccc3)CC2)c1=O is lower in melting point: 132 to 135 °C for the first, 106 to 107 °C for the second.

First: O=C(c1ccco1)N1N=CCC1c1ccccc1 (centres undefined)
Second: [N-]=[N+]=NCC(=O)N1CC(c2ccccc2)c2ccccc21 (centres undefined)
The melting point of the first is higher: 136 to 137 °C for the first, 72 to 73 °C for the second.

Compared with CCCCCCOc1cc(C=O)c(OCCCCCC)cc1C=O, CCCCC1(CCCC)c2cc(Br)ccc2-c2ccc(Br)cc21 is higher in melting point: 74.5 to 76 °C for the first, 117 to 118 °C for the second.

First: CC1(c2ccc(OCc3ccccc3[Si](C)(C)C)cc2)OC(=O)N(Nc2ccccc2)C1=O (centres undefined)
Second: Cc1oc(-c2ccccc2)nc1CCOc1ccc(C[C@H](NC(=O)C=Cc2ccccc2C(F)(F)F)C(=O)O)cc1
The melting point of the first is lower: 112 to 114 °C for the first, 170 to 172 °C for the second.

First: COc1ccccc1C1CC(=O)Oc2ccc(Cl)cc21 (centres undefined)
Second: CCC1(C(=O)OC)C(=O)Nc2cccc(Cl)c2CC1c1ccc(OC)cc1 (centres undefined)
The melting point of the first is lower: 172 to 173 °C for the first, 190 to 192 °C for the second.

First: CC(CCCO[Si](C)(C)C(C)(C)C)C1CCC2C3=CC=C4C(C)(C)C(O[Si](C)(C)C(C)(C)C)CCC4(C)C3CCC21C (centres undefined)
Second: CC(C=CC=C(C)c1cc(C(C)(C)C)cc(C(C)(C)C)c1)=CC(=O)O
The melting point of the first is lower: 98 to 106 °C for the first, 196 to 198 °C for the second.

Compared with COC(=O)Cc1csc(NC(=O)C(CC2CCCC2)c2ccc(Cl)c(Cl)c2)n1 (centres undefined), COC(=O)CCCc1oc(Cl)nc1-c1ccc(Cl)cc1 is lower in melting point: 150 to 151 °C for the first, 73 to 74 °C for the second.

First: Cn1ncnc1COc1nc2c(-c3cc(F)ccc3F)nncn2c1-c1ccccc1
Second: CCN(C)c1nc2cc(-c3ccccc3)nnc2c2ccccc12
The melting point of the first is higher: 200 °C for the first, 130 to 133 °C for the second.

First: CC(C)(C)C(=O)C(CS(=O)(=O)c1ccccc1)n1cncn1 (centres undefined)
Second: CC(=O)NC(Oc1ccccc1)C(=O)NCc1ccccc1 (centres undefined)
The melting point of the first is higher: 135 °C for the first, 125 to 128 °C for the second.

Compared with O=S1OC(c2ccc(F)cc2)C(Cn2cncn2)(c2ccc(Cl)cc2Cl)O1 (centres undefined), OC1(c2ccc3c(c2)OCO3)C(c2ccc(Cl)cc2)SC2=NCCCCN21 (centres undefined) is lower in melting point: 170 to 171 °C for the first, 105 to 107 °C for the second.

First: CC#CCOc1ccc(S(=O)(=O)C2(C(=O)NO)CCN(C(C)C)CC2)cc1
Second: CN(C)CC(c1ccc(OCc2ccccc2)cc1)C1(O)CCCCC1 (centres undefined)
The melting point of the first is lower: 105 °C for the first, 140 to 142 °C for the second.

First: CC(=O)c1ccc(OCc2ccccc2)c(CCCc2ccccc2)c1O
Second: CCCc1c(OCc2ccc(CC#N)cc2)ccc(C(C)=O)c1O
The melting point of the first is higher: 115 to 116 °C for the first, 75 to 76 °C for the second.

Compared with Cc1sc(-c2ccccc2)nc1CCC(=O)c1ccc(CC2SC(=O)NC2=O)s1 (centres undefined), Cc1nc(N2CCCC(CCCc3ccccc3)C2=O)sc1C(=O)NCc1ccccc1 (centres undefined) is lower in melting point: 164 to 166 °C for the first, 140 to 141 °C for the second.

First: CN1CCCC1=NC(=O)Nc1ccc(OCc2ccccc2)c(Cl)c1
Second: O=C(O)c1ccc(NCc2cccc(Cl)c2)cn1
The melting point of the first is lower: 115 to 117 °C for the first, 170 to 174 °C for the second.

Compared with Fc1cccc(Cl)c1-c1nc(F)n(-c2ccccc2C(F)(F)F)n1, N#CCn1nc2n(c1=O)-c1ccc(Cl)nc1C(c1ccccc1Cl)=NC2 is higher in melting point: 68 to 70 °C for the first, 198 to 200 °C for the second.

First: O=C(c1cc(-c2ccccc2)ccn1)N(O)Cc1ccccc1
Second: CCOC(=O)c1sc2cc(OCc3cccnc3)ccc2c1Sc1ccccc1
The melting point of the first is higher: 160 to 165 °C for the first, 94 to 95 °C for the second.

First: CCOP(=O)(OCC)C(Nc1nc2ccccc2[nH]1)P(=O)(OCC)OCC
Second: CCCc1nc2c(N)nc3ccccc3c2n1CCOCCCS(=O)(=O)C(C)C
The melting point of the first is lower: 169 to 170 °C for the first, 176 to 177 °C for the second.

O=C(Cc1c(-c2ccccc2)c2cc3c(cc2oc1=O)CCC3)Nc1c(Cl)cncc1Cl and Cc1cc(-c2c(F)cc3c(=O)c(Cc4ccc(O)cc4)cn(C4CC4)c3c2F)cc(C)n1 cannot be ordered by melting point: 257 to 259 °C for the first, 258 to 259 °C for the second.

Compared with COc1ccc(S(=O)(=O)N2C(=O)C(c3ccccc3OC)(N3CCc4ccccc4[C@H]3C(=O)N(C)C)c3cc(Cl)ccc32)c(OC)c1 (some centres undefined), COc1ccc(-n2c(=O)n(OCc3ccccc3)c(=O)c3cc(F)c(F)cc32)cc1 is lower in melting point: 263 °C for the first, 211 to 212 °C for the second.

First: N#CC1Sc2ccccc2N1C(=O)c1ccc(Cl)cc1 (centres undefined)
Second: COC(=O)/C=C/C=C(\c1ccc(OC)cc1)c1ccccc1OC
The melting point of the first is higher: 115 to 117 °C for the first, 99.5 to 102 °C for the second.

First: CCCCn1c(C)c(Br)c(=O)c(C(=O)Nc2c(CC)cccc2CC)c1C
Second: CCCCNc1c(C(=O)OCC)c(C)nc(N)c1[N+](=O)[O-]
The melting point of the first is higher: 158 to 160 °C for the first, 98 to 99 °C for the second.

First: Cc1cc(-n2ccnc2)c2cccc(OCc3c(Cl)ccc(S(=O)(=O)N4CCCC4C(=O)NCC4CCN(CC(=O)CC(=O)O)CC4)c3Cl)c2n1 (centres undefined)
Second: COc1ccc(C)cc1NC(=O)Nc1ccc(N2CCN(C(=O)Nc3ccc(OCC(O)CO)cc3Cl)CC2)cc1 (centres undefined)
The melting point of the first is lower: 125 °C for the first, 134 to 136 °C for the second.

First: CC(C)(CO)CNc1nccc(-c2c(-c3ccc(F)cc3)nc3occn23)n1
Second: COc1cc(Nc2nccc(-c3ccc(NCCCN)nc3)n2)cc(OC)c1OC
The melting point of the first is lower: 149 °C for the first, 152 to 153 °C for the second.

First: CC(C)(C)OC(=O)N1CCS(=O)(=O)C1
Second: O=COCCCCCC(=O)NC[C@@H]1CN2C(=O)C[C@H]2O1 (racemic)
The melting point of the first is higher: 106 to 107 °C for the first, 61.5 to 63 °C for the second.

First: Cn1cc(SC(F)(F)F)c(N)n1
Second: CC(c1ccc(NC=O)c(N)c1)n1ccnc1 (centres undefined)
The melting point of the first is lower: 138 to 140 °C for the first, 212 °C for the second.

Going from COc1ccc(Oc2cccc(NC(=O)c3ccn4c3CSC4c3cccnc3)c2)cc1 (centres undefined) to COC(=O)c1ccc2ccc3ccccc3c2c1C(=O)OC, the melting point falls from 120 °C to 117 °C.

Compared with CN(C)c1cccc(N(C)C)c1NC(=O)N(Cc1ccc(O)cc1)CC1(c2ccccn2)CCCCC1, Cc1ncc(NC(=O)OCc2ccccc2)c(=O)n1CC(=O)NC(Cc1ccccc1)C(=O)C(F)(F)F (centres undefined) is lower in melting point: 162 to 166 °C for the first, 115 to 118 °C for the second.

O=c1[nH]ncc2c1c(O)nc1cc(Cl)ccc12 and Cc1nn(C)c2[nH]c(=O)c3ccccc3c12 cannot be ordered by melting point: over 350 °C for the first, over 310 °C for the second.

Compared with CC(=O)CCc1nc2ccc3c(c2o1)C(CCNC(C)=O)CC3 (centres undefined), COc1ccc(O)c(C(=O)NCCc2ccc([N+](=O)[O-])cc2)c1 is higher in melting point: 111 to 112 °C for the first, 200 °C for the second.

First: COc1cc(N)ccc1N1CCN(CCCNc2c(C)c(=O)n(C)c(=O)n2C)CC1
Second: CC(N1C(=O)C(=O)N(c2ccc(F)cc2F)C1=S)C(C)(C)C (centres undefined)
The melting point of the first is lower: 146 to 148 °C for the first, 155 to 156 °C for the second.

First: CNc1nc2ccccc2c2c1ncn2C
Second: CCn1cc(-c2nnnn2C)c(=O)c2ccccc21
The melting point of the first is higher: 216 to 218 °C for the first, 170 to 176 °C for the second.

First: Fc1ccc(-c2c[nH]c([C@@H](NC3CCC3)C3CCCCC3)n2)cc1
Second: NC(=O)NN=Cc1ccc(OC2CCCCCC2)cc1
The melting point of the first is lower: 170 to 172 °C for the first, 215 to 216 °C for the second.

First: O=S(=O)(CS(=O)(=O)C1CCCCC1)C1CCCCC1
Second: N#CCCN1CCC(C2(c3ccc(F)cc3)OCCO2)CC1
The melting point of the first is higher: 137 to 139 °C for the first, 107 to 109 °C for the second.

Compared with O=C1COc2cc(Br)c(F)cc2N1, CC1Nc2cc(F)c(F)cc2-n2cccc21 (centres undefined) is lower in melting point: 244 °C for the first, 93 to 95 °C for the second.

Compared with COc1ccc(-c2c(C(=O)CC(C)C)c(C)nc3cc(OC)c(OC)cc23)cc1OC, CCOc1c(-c2ccc(O)c(OC)c2)oc2cc(OC)cc(O)c2c1=O is higher in melting point: 135 to 137 °C for the first, 168 to 169 °C for the second.

Compared with O=C(OCN1C(=O)CN(CCN2CC(=O)N(COC(=O)c3ccc4c(c3)OCO4)C(=O)C2)CC1=O)c1ccc2c(c1)OCO2, COCC(=O)c1cc(-c2ccc(S(C)(=O)=O)cc2)n(-c2ccc(F)cc2)n1 is lower in melting point: 195 to 198 °C for the first, 151 to 154 °C for the second.

First: CCOC(=O)c1ccc(O)cc1SC
Second: CCc1cc(C(C)C)c(-c2ccc(O)cc2)cc1C
The melting point of the first is higher: 132 to 136 °C for the first, 106 to 108 °C for the second.

First: Nc1c(SSc2c(-c3ncon3)nn(-c3c(Cl)cc(C(F)(F)F)cc3Cl)c2N)c(-c2ncon2)nn1-c1c(Cl)cc(C(F)(F)F)cc1Cl
Second: COc1cccc(Cc2nnc(NCCSCc3nc[nH]c3C)[nH]c2=O)c1
The melting point of the first is higher: 226 to 228 °C for the first, 203 to 204 °C for the second.

First: NS(=O)(=O)c1ccc(NC(=O)Nc2ccc(Br)cc2)cc1
Second: O=C(Nc1ccc(-c2ccc(-c3ccc(NC(=O)c4ccccc4)cc3)o2)cc1)c1ccccc1
The melting point of the first is lower: 269 to 271 °C for the first, 312 to 314 °C for the second.

In the case of CC1(O)c2ccccc2CC12CCC1(CC2)OCCO1 (centres undefined), the melting point is reported as 140 to 143 °C.

Reference: a melting point compilation (Tetko et al.; mined from patent text by program, amines drawn as free bases though some values may be those of a salt)
